Here are results for three compounds from article PMC8662641, “Site-Specific Labeling of Endogenous Proteins Using CoLDR Chemistry” (Journal of the American Chemical Society, 2021).

By pIC50 is commonly meant the IC50 on a negative log10 scale, so that one unit is a factor of ten. In general, pKd refers to the negative decadic logarithm of the Kd, by convention in mol/L.

pIC50, pKd: −log10 of the molar value. Counter-ions that a name gives are not always drawn.

One test concerns the target T1, BTK-1h (Homo sapiens, UniProt Q06187).
T1 construct: The BTK kinase domain was diluted to 2 μM in the buffer, and 2 μM 1h was added; made in house
As to the kind of experiment: High-throughput screening with 1h-labeled BTK. It counts as binding. As to the method: The collection was composed of BTK binding compounds obtained in our previous luminescence screen[37] (Data set S2). […] The resulting BTK-1h (50 μL) was added to the inhibitors.

In the next test the test system is Bcr-Abl(WT). Details: method as in selleck (supplier comment). To be noted: ref selleck (supplier comment); cited from earlier work.
The next test has as its target BTK (Homo sapiens, UniProt Q06187). Set-up: BTK kinase domain was expressed and purified as previously reported; made in house; method as in Reddi et al., J. Am. Chem. Soc. 2021, 143 (13), 4979–4992. Conditions: ref Reddi et al., J. Am. Chem. Soc. 2021, 143 (13), 4979–4992; cited from earlier work.
A further test deals with Bcr-Abl(T315I). Set-up: method as in selleck (supplier comment). Conditions: ref selleck (supplier comment); cited from earlier work.
The target of a further test is G-quadruplexe. Set-up: method as in selleck (supplier comment). Conditions: cell-free assay; ref selleck (supplier comment); cited from earlier work.
Another test relates to WT BTK. Details: method as in selleck (supplier comment). To be noted: ref selleck (supplier comment); cited from earlier work.
The next test concerns C481S BTK. Details: method as in selleck (supplier comment). To be noted: ref selleck (supplier comment); cited from earlier work.
Where [1] appears, read: Dataset S2A, 200 μM compound, BTK-1h, 32 °C, 10 min.
[2] abbreviates: Dataset S2C, BTK-1h with inhibitor.

Chain of BTK (Q06187 402-655 limits assumed): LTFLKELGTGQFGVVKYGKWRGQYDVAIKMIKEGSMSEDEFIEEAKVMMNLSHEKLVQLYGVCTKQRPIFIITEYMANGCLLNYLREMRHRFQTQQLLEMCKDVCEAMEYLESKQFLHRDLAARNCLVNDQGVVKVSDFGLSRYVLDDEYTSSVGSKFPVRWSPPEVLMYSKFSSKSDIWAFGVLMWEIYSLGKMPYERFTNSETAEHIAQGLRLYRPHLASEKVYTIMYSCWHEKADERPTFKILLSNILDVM
T1 sequence (Q06187 402-655): as the sequence (Q06187 402-655 limits assumed) above

Regarding `Cc1ccc(C(=O)Nc2ccc(CN3CCN(C)CC3)c(C(F)(F)F)c2)cc1C#Cc1cnc2[nH]ncc2c1` [PCM-0215209-001, GZD824 Dimesylate], the “FI (650)/FI (620)” value on BTK-1h (setting [1]) was determined as 1.799; on BTK-1h (setting [2]), 1.6661. Further, the “FI (BTK-1h)/FI (BTK-1h+Inhibitor) at 620 nm” value at BTK-1h (setting [1]) is on record as 1.6661. Also, the pIC50 in the test with Bcr-Abl(WT) is 9.47; in the test on Bcr-Abl(T315I), 9.17. Besides, the “BTK Inhibition reported in luminescence assay*” value (“BTK Inhibition reported” below) on BTK is on record as 114.5.
As to `NCCOc1cc(C(=O)Nc2cc(OCCN)c3ccccc3n2)nc(C(=O)Nc2cc(OCCN)c3ccccc3n2)c1` [PCM-0215476-001, Pyridostatin Trifluoroacetate Salt], on BTK-1h (setting [1]), the “FI (650)/FI (620)” value is on record as 2.671 and the “FI (BTK-1h)/FI (BTK-1h+Inhibitor) at 620 nm” value was 1.539. For the same compound, on BTK-1h (setting [2]), the “FI (650)/FI (620)” value is reported as 1.539. Moreover, on G-quadruplexe, the pKd is 6.31. Also, on BTK, the “BTK Inhibition reported” value was 59.5.
For the compound `O=C(c1ccc(Oc2ccccc2)cc1Cl)c1c[nH]c2ncnc(N[C@@H]3CC[C@@H](CO)OC3)c12` [PCM-0216245-001, ARQ 531], the “FI (650)/FI (620)” value was found to be 3.795 on BTK-1h (setting [1]) and 2.9215 on BTK-1h (setting [2]). For the same compound, on BTK-1h (setting [1]), the “FI (BTK-1h)/FI (BTK-1h+Inhibitor) at 620 nm” value amounted to 2.9215. Further, the figures for the pIC50 with WT BTK and with C481S BTK were 9.07 and 9.41, respectively. For the same compound, the “BTK Inhibition reported” value on BTK is given as 115.8.
